Reference: patent US20260265304A1, “PEPTIDE INHIBITORS OF FOCAL ADHESION KINASE ACTIVITY AND USES THEREOF” (Arizona Board of Regents on Behalf of the University of …, priority 2019, published 2026)

What was measured:
[1] = molecular target: T1, trypsin (Bos taurus, UniProt P00760); assay: In vitro trypsin digest assay (trypsin-agarose beads, LC-MS); assay type: in vitro ADME; conditions: trypsin-agarose beads in physiological buffer, read-out: t1/2 in trypsin digest (protease resistance) (converted)
T1 construct: purchased ThermoFisher
T1 sequence (P00760 24-246): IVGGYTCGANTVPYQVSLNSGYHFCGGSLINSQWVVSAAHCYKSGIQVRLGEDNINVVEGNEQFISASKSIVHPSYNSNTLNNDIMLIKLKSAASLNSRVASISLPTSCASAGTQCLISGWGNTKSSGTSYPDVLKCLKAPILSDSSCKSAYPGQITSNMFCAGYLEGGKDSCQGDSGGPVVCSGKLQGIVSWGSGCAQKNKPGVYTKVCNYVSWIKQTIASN
Procedure: Assays were performed using trypsin-agarose beads (ThermoFisher) and measurement of peptide concentration using LC-MS. Peptide half-lives were calculated using GraphPad Prism software.
Trypsin-agarose beads were used to test the potential cleavage of peptides in a physiological buffer and LC-MS was used as the analytical method to determine peptide concentration.

[2] = system: SK-MEL-103 melanoma cells; assay: 3D Matrigel-on-top proliferation assay; assay type: cell-based; conditions: for IC50: SK-MEL-103 melanoma cells, 3D Matrigel-on-top
Procedure: (§1) B. Competition FP experiment with 1907 showing inhibition of TAMRA-LD2 binding to FAT. C. SPR binding and selectivity analysis using WT FAT and Mutant FAT (L994E, 1936A) at the helix-protein interface. D. Flow cytometry analysis of Rhodamine-1907 (10 μM) cellular uptake in MDA-MB-453 breast cancer cells. E. Boyden-chamber invasion assays in SK-MEL-103 melanoma cells. F. 3D Matrigel-on-top proliferation assays in SK-MEL-103 melanoma cells.
(§2) B. 3D structure of negative control molecule (UACC-2020). C. 3D Matrigel-on-top cell proliferation data of stapled peptides in SK-MEL-103 melanoma cells.
(§3) A negative control myristoylated peptide (2020) was designed and synthesized based on non-active molecule 2014. Experiments were conducted to test the efficacy of these peptides in 3D proliferation assays using SK-MEL-103 melanoma cells. […] Furthermore, 2012 had no effects on the proliferation of normal HUVEC cells (IC50=NA) (FIG. 7).

[3] = system: SK-MEL-103 melanoma cells; assay: Boyden-chamber invasion assay; assay type: cell-based; conditions: SK-MEL-103, compared to Defactinib relative to compound KD
Procedure: as §1
To further evaluate the activity of 1907, experiments were conducted that tested the peptide in a flow cytometry-based cell permeability assay. […] Experiments were also conducted to test the cellular efficacy in SK-MEL-103 melanoma cells.

[4] = system: LX2 human liver stellate cells; assay: Anti-fibrotic activity in TGF-β-induced stellate cells (Western blot, morphology); assay type: cell-based
Procedure: A. Western blot studies of LX2 cells treated with 2 ng/ml TGF-β for 17 h to induce pro-fibrotic phenotypes. […] Quantification of fibronectin results are shown in the lower panel. B. Morphological changes of LX2 cells after TGF-β and peptide treatment for 17 h. Images were captured using bright field microscopy.
Experiments were conducted to test the anti-fibrotic effects of stapled peptides targeting the FAK FAT domain (FIG. 13). TGF-β induction was performed in LX-2 human liver stellate cells to promote a pro-fibrotic phenotypic and differentiation to myofibroblast-like cells.

[5] = system: HUVEC cells; assay: 3D Matrigel-on-top proliferation assay in normal cells; assay type: cell-based
Procedure: as §2, §3

[6] = molecular target: T2, FAK FAT domain (biotinylated Avitag-FAT protein) (Homo sapiens, UniProt Q05397); assay: Surface plasmon resonance (SPR) binding to immobilised FAT protein; conditions: FAT protein immobilised, peptide 200 μM-0.01 μM, 1:1 binding model; read-out: SPR KD
T2 construct: biotinylated Avitag-FAT protein was diluted in running buffer
T2 sequence (Q05397 914-1045 limits assumed): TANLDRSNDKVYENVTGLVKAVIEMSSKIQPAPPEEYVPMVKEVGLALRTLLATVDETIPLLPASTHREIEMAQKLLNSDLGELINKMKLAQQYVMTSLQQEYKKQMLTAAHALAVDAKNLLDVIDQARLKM

Row | Structure (SMILES) | half-life [1] | inhibition of 3D proliferation ([2]; SK-MEL-103, compared to Defactinib relative to compound KD) | IC50 [2] | inhibition of invasion [3] | TGF-β-induced expression of fibronectin ([4]; LX2 cells, 2 ng/ml TGF-β 17 h, peptide 10, 5, 2 μM pretreated 1 h) | morphological change of TGF-β-induced cells ([4]; LX-2 cells, TGF-β and peptide treatment 17 h, bright field microscopy) | 3D proliferation IC50 [5] | Kd [6]
1 | CC(=O)N[C@@H](CC(N)=O)C(=O)N[C@@H](CC(C)C)C(=O)N[C@]1(C)CCCCCC/C=C/CCC[C@@](C)(C(=O)N[C@@H](CCC(=O)O)C(=O)N[C@@H](CC(C)C)C(=O)N[C@@H](CC(N)=O)C(N)=O)NC(=O)[C@H](CC(C)C)NC(=O)[C@H](CC(C)C)NC(=O)[C@H](CCCNC(=N)N)NC(=O)[C@H](CC(=O)O)NC(=O)[C@H](CC(C)C)NC(=O)[C@H](CCC(=O)O)NC1=O [Peptide 1907, Ac-NLR8ELDRLLS5ELN-NH2] | 15.7 h | effectively inhibited | 60 µM | effectively inhibited | – | – | – | –
2 | CCCCCCCCCCCCCC(=O)N[C@@H](CC(N)=O)C(=O)N[C@@H](CC(C)C)C(=O)N[C@]1(C)CCCCCCC=CCCC[C@@](C)(C(=O)N[C@@H](CCC(=O)O)C(=O)N[C@@H](CC(C)C)C(=O)N[C@@H](CC(N)=O)C(N)=O)NC(=O)[C@H](CC(C)C)NC(=O)[C@H](CC(C)C)NC(=O)[C@H](CCCNC(=N)N)NC(=O)[C@H](CC(=O)O)NC(=O)[C@H](CC(C)C)NC(=O)[C@H](CCC(=O)O)NC1=O [Peptide 2012, Myristoyl-NLR8ELDRLLS5ELN-NH2] | > 48 h | – | 5.5 µM | – | reduced the TGF-β-induced expression of fibronectin, a marker of fibrosis, in a dose-dependent manner | induced a morphological change | no effects | > 200 µM
